Assay results as given in publication PMC10483858 (Molecular Cancer, 2023).

Assays:
[1] = test system: hPD-1/hPD-L1 immune checkpoint (Jurkat-ECs with CHO/TCRAct/PD-L1 cells); experiment: Immune checkpoint blockade (ICB) assay, hPD-1/hPD-L1 setup; format: cell-based, human; details: for blockade of hPD-1/hPD-L1, restored activation of Jurkat-ECs (in words): 24-hour incubation, in parallel to hPD-1/mPD-L1 assay, Fig. 2C
Description: (§1) The peptide was tested along with three therapeutic antibodies, atezolizumab, avelumab, and durvalumab.
(§2) Data points represent mean ± SD values from 4–6 independent experiments. […] Triton X-100-treated cells and cells without the addition of a Redox Dye were used as baseline controls. […] In the assay, three antibodies (atezo. – atezolizumab, ave. – avelumab, durva. – durvalumab) and the peptide pAC65 were used. […] The graphs show fractions of positive cells and represent cumulative data from 3–4 donors.
These cell lines were cultured in RPMI 1640 medium (Biowest) supplemented with 10% fetal bovine serum (FBS, Biowest) and […] L-glutamine (Biowest). The selection antibiotics: G418 (250 μg/mL, InvivoGen) and Hygromycin B Gold (50 μg/mL, InvivoGen) were also added to the culture medium as per application.
The assay was performed according to the manufacturer’s protocol (Promega). […] The dilutions of monoclonal antibodies were prepared in the assay buffer. Followed by a 6-hour (routinely) or 24-hour (for testing bioactivity in parallel to the hPD-1/mPD-L1 ICB assay) incubation at 37°C and 5% CO2, and an additional 20 min of incubation with the luminescence reagent (Bio-Glo™ Luciferase Assay System, Promega) at room temperature, activation of Jurkat ECs, reflected by luciferase activity, was monitored by luminescence measurements on a Spark microplate reader (Tecan). […] Data points represent mean ± SD values from four to eight independent experiments. EC50 values as half-maximal effective concentrations were calculated from the Hill curve fitting to the experimental data using Origin Pro 2020 software (OriginLab).

[2] = test system: PD-L1/CD80 and PD-1/PD-L1 pathways; details: ref [14]; cited from earlier work
[3] = test system: hPD-1/mPD-L1 immune checkpoint (Jurkat-ECs with B16-F10/TCRAct cells); details: ref [12]; cited from earlier work
Description: To evaluate the bioactivity of the pAC65 peptide, cell-based immune checkpoint blockade assays, T-cell activation (TCA) assay, and a viability assay were performed.

[4] = test system: hPD-1/mPD-L1 immune checkpoint (Jurkat-ECs with B16-F10/TCRAct cells); experiment: Immune checkpoint blockade (ICB) assay, hPD-1/mPD-L1 setup; format: cell-based, human (hPD-1); details: B16-F10/TCRAct cells treated with 20 ng/ml mouse IFN-γ for 48 h; 24 h co-culture, Fig. 2D; three independent experiments
Description: as §1, §2
Mouse skin melanoma B16-F10 cell line was purchased from the American Type Culture Collection (ATCC) and cultured in RPMI 1640 medium (Biowest) supplemented with 10% fetal bovine serum (FBS, Biowest) and […] L-glutamine (Biowest). The generation of the B16-F10 cells overexpressing TCR-Activator (maAPCs) clone 3A5 was described in our previous work (Magiera-Mularz et al., 2021). […]
B16-F10/TCRAct cells (maAPCs) were seeded on 96-well white bottom plates at the density of 2,000 cells/well and treated with 20 ng/ml of mouse recombinant IFN-γ (Thermo Fisher Scientific) for 48 hours before the ICB assay. […] After 24 hours (37°C, 5% CO2) and 20 min of additional incubation with the luminescence reagent (Bio-Glo™ Luciferase Assay System, Promega) at room temperature, activation of Jurkat ECs was monitored by luminescence measurements on a Spark microplate reader (Tecan). […]

Compound | blockade of hPD-1/hPD-L1, restored activation of Jurkat-ECs (in words) [1] | EC50 ([1]; luciferase luminescence, 6-hour incubation (routinely), 37°C, 5% CO2, 0.1% DMSO (pAC65), Hill fit, 4–6 independent experiments, read-out: EC50, activation of Jurkat-ECs) | blocking of both PD-L1/CD80 and PD-1/PD-L1 pathways [2] | specificity towards hPD-L1 / failure to target mouse PD-L1 (previous studies) [3] | blockade of hPD-1/mPD-L1, restored activation of Jurkat-ECs (in words) [4]
atezolizumab: therapeutic PD-L1-blocking monoclonal antibody (Selleckchem) | efficiently blocked the hPD-1/hPD-L1 immune checkpoint | 140 pM | Blocking of both PD-L1/CD80 and PD-1/PD-L1 pathways has also been documented |  | 
Cc1cc(CN[C@H](CO)C(=O)O)c(OCc2cccc(C#N)c2)cc1OCc1cccc(-c2ccc3c(c2)OCCO3)c1C [BMS-1001] |  |  |  | specificity towards the hPD-L1 protein | 
avelumab: therapeutic PD-L1-blocking monoclonal antibody (MedChemExpress) | restored the activation of Jurkat-ECs blocked with either the hPD-L1-expressing or mPD-L1 expressing cells |  | Blocking of both PD-L1/CD80 and PD-1/PD-L1 pathways has also been documented |  | restored the activation of Jurkat-ECs blocked with either the hPD-L1-expressing or mPD-L1 expressing cells
Cc1c(COc2cc(OCc3cccc(C#N)c3)c(CN3C[C@H](O)C[C@@H]3C(=O)O)cc2Cl)cccc1-c1ccc2c(c1)OCCO2 [BMS-1166] |  |  |  | specificity towards the hPD-L1 protein | 
durvalumab: therapeutic PD-L1-blocking monoclonal antibody (Selleckchem) | efficiently blocked the hPD-1/hPD-L1 immune checkpoint |  | Blocking of both PD-L1/CD80 and PD-1/PD-L1 pathways has also been documented |  | atezolizumab but not durvalumab was able to block the hPD-1/mPD-L1 immune checkpoint
